Measurements from ChEMBL document CHEMBL2169838, “Synthesis and biological evaluation of the 1-arylpyrazole class of σ(1) receptor antagonists: identification of 4-{2-[5-methyl-1-(naphthalen-2-yl)-1H-pyrazol-3-yloxy]ethyl}morpholine (S1RA, E-52862)” (J Med Chem, 2012).
Converted amounts (≈) assume the structure as drawn. Values belong to the compound of their own block, whether it stands above or below them.

Assays:
[1] = molecular target: Sigma non-opioid intracellular receptor 1 (Homo sapiens, UniProt Q99720); test: biochemical
Description: Displacement of [3H](+)pentazocine from human sigma 1 receptor transfected in HEK293 cell membranes after 120 mins by scintillation counter

[2] = Displacement of [3H]di-o-tolylguanidine from sigma 2 receptor in guinea pig brain membranes after 120 mins by scintillation counter; format: cell membranes, Cavia porcellus, Membrane
[3] = Lipophilicity, log D of the compound by PH-metrivc technique; format: physicochemical; details: octanol/water
Cytochrome P450 2C9 [4] = molecular target: T1, Cytochrome P450 2C9 (Homo sapiens, UniProt P11712); test: Inhibition of human recombinant CYP2C9; format: ADME
[5] = Intrinsic clearance in human liver microsomes assessed as per mg of protein at 10 uM; format: ADME, Microsome; details: read-out: CLH
[6] = Thermodynamic solubility of the compound in phosphate buffer at pH 7.4; format: physicochemical; details: read-out: Therm_solubility
Mus musculus [7] = test: Neurotoxicity in CD1 mouse assessed as motor impairment at 32 to 64 mg/kg, ip measured after 30 to 180 mins by rotarod test; format: toxicity, organism-based; parameters: route intraperitoneal; details: in vivo
Cytochrome P450 2B6 [8] = molecular target: T2, Cytochrome P450 2B6 (Homo sapiens, UniProt P20813); test: Inhibition of human recombinant CYP2B6; format: ADME
T2 sequence (P20813 whole entry): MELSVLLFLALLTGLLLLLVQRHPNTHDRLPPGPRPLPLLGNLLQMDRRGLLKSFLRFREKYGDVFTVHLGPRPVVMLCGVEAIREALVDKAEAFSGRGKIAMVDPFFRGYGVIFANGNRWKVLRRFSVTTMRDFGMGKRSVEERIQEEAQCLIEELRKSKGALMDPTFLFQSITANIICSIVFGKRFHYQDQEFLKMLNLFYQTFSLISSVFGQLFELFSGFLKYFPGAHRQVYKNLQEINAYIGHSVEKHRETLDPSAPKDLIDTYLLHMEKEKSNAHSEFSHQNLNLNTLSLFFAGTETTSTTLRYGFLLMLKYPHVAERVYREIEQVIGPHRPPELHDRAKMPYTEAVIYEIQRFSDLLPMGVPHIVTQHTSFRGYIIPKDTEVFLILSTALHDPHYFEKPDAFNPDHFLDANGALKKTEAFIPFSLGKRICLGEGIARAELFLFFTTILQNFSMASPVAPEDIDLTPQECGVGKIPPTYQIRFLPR

Cytochrome P450 2E1 [9] = molecular target: T3, Cytochrome P450 2E1 (Homo sapiens, UniProt P05181); test: Inhibition of CYP2E1 in human liver microsomes; format: ADME, Microsome
Cytochrome P450 2D6 [10] = molecular target: T4, Cytochrome P450 2D6 (Homo sapiens, UniProt P10635); test: Inhibition of CYP2D6 in human liver microsomes; format: ADME, Microsome
Mus musculus [11] = test: Inhibition of capsaicin-induced mechanical hypersensitivity in CD1 mouse assessed as paw withdrawal latency at 32 mg/kg, ip administered 15 mins prior to capsaicin challenge measured 30 mins post capsaicin challenge; format: functional; details: route intraperitoneal
[12] = Binding affinity to rat sigma 2 receptor
[13] = molecular target: T5, 5-hydroxytryptamine receptor 2B (Homo sapiens, UniProt P41595); test: Antagonist activity at human 5HT2B receptor; format: functional
[14] = Apparent permeability across human Caco2 cells at 10 uM after 2 hrs; format: ADME, cell-based; details: Caco-2
Mus musculus [15] = test: Antiallodynic activity in ip dosed CD1 mouse partial sciatic nerve ligation model assessed as inhibition of mechanical allodynia administered 30 mins by von Frey test; format: functional
Cytochrome P450 2E1 [16] = molecular target: T3, Cytochrome P450 2E1; test: Inhibition of human recombinant CYP2E1; format: ADME
Cytochrome P450 2C19 [17] = molecular target: T6, Cytochrome P450 2C19 (Homo sapiens, UniProt P33261); test: Inhibition of human recombinant CYP2C19; format: ADME
[18] = Partition coefficient, log P of the compound by PH-metrivc technique; format: physicochemical; details: octanol/water
Cytochrome P450 2B6 [19] = molecular target: T2, Cytochrome P450 2B6; test: Inhibition of CYP2B6 in human liver microsomes; format: ADME, Microsome
Mus musculus [20] = test: Cmax in CD1 mouse at 10 mg/kg, po at 0.5 hrs; format: ADME, organism-based; parameters: dose 10 mg/kg, route oral; details: in vivo
Mus musculus [21] = test: Antihyperalgesic activity in ip dosed CD1 mouse partial sciatic nerve ligation model assessed as inhibition of thermal hyperalgesia administered 45 mins by plantar test; format: functional
Cytochrome P450 2C9 [22] = molecular target: T1, Cytochrome P450 2C9; test: Inhibition of CYP2C9 in human liver microsomes; format: ADME, Microsome
Cytochrome P450 2C8 [23] = molecular target: T7, Cytochrome P450 2C8 (Homo sapiens, UniProt P10632); test: Inhibition of CYP2C8 in human liver microsomes; format: ADME, Microsome
T7 sequence (P10632 whole entry): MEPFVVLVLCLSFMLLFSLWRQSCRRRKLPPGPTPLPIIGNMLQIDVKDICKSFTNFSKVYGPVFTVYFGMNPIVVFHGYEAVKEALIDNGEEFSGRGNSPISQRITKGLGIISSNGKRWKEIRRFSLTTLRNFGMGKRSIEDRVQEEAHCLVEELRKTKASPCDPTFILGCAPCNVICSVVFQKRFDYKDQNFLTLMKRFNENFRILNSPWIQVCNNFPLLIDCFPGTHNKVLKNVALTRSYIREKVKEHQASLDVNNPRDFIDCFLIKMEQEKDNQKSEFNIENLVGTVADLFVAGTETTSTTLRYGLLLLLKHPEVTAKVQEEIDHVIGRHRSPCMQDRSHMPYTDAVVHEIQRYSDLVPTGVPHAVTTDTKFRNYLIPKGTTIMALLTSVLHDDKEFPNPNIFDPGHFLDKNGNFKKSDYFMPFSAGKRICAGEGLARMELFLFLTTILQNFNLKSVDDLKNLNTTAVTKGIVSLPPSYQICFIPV

Cytochrome P450 1A2 [24] = molecular target: T8, Cytochrome P450 1A2 (Homo sapiens, UniProt P05177); test: Inhibition of human recombinant CYP1A2; format: ADME
T8 sequence (P05177 whole entry): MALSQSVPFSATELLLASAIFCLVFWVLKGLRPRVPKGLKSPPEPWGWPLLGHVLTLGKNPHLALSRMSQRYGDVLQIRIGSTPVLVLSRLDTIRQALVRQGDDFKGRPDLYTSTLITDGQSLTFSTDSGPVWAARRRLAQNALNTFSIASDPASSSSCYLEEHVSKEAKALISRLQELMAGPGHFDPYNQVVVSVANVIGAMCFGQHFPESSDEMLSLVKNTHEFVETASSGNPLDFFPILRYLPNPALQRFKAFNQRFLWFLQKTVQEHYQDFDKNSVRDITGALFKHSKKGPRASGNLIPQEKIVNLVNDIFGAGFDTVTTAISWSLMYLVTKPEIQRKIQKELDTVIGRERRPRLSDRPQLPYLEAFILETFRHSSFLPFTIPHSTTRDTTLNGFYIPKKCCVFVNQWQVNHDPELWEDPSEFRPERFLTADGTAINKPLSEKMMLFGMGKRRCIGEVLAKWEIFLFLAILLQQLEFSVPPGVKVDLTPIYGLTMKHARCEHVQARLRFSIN

[25] = Dissociation constant, pKa of the compound; format: physicochemical
Cytochrome P450 2D6 [26] = molecular target: T4, Cytochrome P450 2D6; test: Inhibition of human recombinant CYP2D6; format: ADME
[27] = molecular target: T5, 5-hydroxytryptamine receptor 2B; test: Binding affinity to human 5HT2B receptor
[28] = AUC in CD1 mouse at 10 mg/kg, po; format: ADME, organism-based; parameters: dose 10 mg/kg, route oral; details: plasma
Mus musculus [29] = test: Analgesic activity in CD1 mouse assessed as inhibition of capsaicin-induced mechanical hypersensitivity at 16 mg/kg, ip administered 15 mins prior to capsaicin challenge measured 30 mins post capsaicin challenge; format: functional; details: route intraperitoneal
Cytochrome P450 2C19 [30] = molecular target: T6, Cytochrome P450 2C19; test: Inhibition of CYP2C19 in human liver microsomes; format: ADME, Microsome
Cytochrome P450 2C8 [31] = molecular target: T7, Cytochrome P450 2C8; test: Inhibition of human recombinant CYP2C8; format: ADME
Cytochrome P450 1A2 [32] = molecular target: T8, Cytochrome P450 1A2; test: Inhibition of CYP1A2 in human liver microsomes; format: ADME, Microsome
[33] = molecular target: Voltage-gated inwardly rectifying potassium channel KCNH2 (Homo sapiens, UniProt Q12809)
Sequence of Voltage-gated inwardly rectifying potassium channel KCNH2 (Q12809 whole entry): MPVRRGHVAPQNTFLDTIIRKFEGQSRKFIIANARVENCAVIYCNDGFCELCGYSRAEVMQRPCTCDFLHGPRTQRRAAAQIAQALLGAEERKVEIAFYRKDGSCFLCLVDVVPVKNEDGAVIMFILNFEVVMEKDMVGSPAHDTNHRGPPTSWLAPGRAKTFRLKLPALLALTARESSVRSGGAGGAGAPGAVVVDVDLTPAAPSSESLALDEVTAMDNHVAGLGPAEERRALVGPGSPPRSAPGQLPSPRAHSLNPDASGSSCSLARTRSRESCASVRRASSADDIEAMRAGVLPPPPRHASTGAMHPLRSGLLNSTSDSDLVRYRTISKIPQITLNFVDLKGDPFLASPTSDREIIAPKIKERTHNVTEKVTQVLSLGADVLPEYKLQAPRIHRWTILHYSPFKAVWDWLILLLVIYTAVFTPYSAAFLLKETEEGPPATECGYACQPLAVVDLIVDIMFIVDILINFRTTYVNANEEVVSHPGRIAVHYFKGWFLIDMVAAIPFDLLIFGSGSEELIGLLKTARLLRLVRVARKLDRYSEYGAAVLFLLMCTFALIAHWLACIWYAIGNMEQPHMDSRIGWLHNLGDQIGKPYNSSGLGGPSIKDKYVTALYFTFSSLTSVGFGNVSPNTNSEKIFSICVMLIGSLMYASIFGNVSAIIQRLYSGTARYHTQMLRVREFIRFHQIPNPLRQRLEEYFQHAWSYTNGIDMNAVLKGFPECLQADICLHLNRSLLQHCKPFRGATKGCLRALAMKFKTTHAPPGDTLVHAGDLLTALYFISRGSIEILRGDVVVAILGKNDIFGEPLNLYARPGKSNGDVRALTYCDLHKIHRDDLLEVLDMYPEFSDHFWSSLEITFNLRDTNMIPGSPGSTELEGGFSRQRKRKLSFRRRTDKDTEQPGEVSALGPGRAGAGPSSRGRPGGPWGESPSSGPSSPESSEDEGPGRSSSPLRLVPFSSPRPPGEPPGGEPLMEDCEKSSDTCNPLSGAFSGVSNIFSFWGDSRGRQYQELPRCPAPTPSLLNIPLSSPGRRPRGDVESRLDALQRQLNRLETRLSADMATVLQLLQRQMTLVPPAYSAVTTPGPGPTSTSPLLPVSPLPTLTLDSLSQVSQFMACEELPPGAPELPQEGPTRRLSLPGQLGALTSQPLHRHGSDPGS
Description: Inhibition of human ERG transfected in HEK293 cell membranes by whole cell patch clamp assay

Sequence of Sigma non-opioid intracellular receptor 1 (Q99720 whole entry): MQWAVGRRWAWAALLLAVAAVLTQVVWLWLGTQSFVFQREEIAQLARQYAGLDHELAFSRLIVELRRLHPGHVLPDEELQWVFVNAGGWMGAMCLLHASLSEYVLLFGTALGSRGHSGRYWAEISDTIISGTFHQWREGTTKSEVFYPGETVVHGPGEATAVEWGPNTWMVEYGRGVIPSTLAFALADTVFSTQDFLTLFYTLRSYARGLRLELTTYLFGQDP
T1 sequence (P11712 whole entry): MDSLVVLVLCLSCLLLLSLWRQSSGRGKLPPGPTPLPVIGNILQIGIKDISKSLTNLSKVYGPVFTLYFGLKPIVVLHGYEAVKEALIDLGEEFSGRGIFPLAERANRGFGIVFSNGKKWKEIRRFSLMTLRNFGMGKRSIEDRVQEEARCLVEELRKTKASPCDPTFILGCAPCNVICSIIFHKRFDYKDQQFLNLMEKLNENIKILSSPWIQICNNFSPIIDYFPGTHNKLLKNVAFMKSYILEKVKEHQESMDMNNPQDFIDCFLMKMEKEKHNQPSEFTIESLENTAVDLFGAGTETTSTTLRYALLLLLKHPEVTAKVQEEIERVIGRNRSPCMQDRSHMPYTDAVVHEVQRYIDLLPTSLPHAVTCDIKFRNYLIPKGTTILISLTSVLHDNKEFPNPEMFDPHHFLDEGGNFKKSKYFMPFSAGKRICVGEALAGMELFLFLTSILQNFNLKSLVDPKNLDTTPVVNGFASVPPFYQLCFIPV
T4 sequence (P10635 whole entry): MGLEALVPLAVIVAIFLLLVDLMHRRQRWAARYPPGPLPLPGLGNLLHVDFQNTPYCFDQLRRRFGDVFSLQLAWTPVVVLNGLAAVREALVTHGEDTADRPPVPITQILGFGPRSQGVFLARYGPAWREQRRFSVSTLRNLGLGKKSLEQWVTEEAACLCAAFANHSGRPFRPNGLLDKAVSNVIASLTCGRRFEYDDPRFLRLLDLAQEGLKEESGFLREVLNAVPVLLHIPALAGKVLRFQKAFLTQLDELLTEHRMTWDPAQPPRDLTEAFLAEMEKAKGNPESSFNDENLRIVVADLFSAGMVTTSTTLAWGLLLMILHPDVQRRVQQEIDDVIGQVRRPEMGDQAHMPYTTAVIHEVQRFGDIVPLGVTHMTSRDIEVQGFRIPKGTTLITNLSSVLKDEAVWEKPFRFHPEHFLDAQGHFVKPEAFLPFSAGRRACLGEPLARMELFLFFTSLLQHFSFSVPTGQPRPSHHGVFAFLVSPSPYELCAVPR
T5 sequence (P41595 whole entry): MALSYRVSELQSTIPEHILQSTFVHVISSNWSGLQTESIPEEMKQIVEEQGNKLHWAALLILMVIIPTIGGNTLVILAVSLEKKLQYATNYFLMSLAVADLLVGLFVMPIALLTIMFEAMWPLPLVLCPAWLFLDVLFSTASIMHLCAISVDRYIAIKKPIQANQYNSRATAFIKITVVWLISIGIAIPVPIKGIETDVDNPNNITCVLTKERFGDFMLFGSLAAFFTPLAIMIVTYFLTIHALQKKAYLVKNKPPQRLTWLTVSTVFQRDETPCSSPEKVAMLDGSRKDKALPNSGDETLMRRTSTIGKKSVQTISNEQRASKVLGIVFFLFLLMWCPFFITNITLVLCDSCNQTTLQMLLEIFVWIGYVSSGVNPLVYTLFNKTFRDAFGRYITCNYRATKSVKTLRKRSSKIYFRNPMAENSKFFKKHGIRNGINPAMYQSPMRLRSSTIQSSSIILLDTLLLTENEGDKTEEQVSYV
T3 sequence (P05181 whole entry): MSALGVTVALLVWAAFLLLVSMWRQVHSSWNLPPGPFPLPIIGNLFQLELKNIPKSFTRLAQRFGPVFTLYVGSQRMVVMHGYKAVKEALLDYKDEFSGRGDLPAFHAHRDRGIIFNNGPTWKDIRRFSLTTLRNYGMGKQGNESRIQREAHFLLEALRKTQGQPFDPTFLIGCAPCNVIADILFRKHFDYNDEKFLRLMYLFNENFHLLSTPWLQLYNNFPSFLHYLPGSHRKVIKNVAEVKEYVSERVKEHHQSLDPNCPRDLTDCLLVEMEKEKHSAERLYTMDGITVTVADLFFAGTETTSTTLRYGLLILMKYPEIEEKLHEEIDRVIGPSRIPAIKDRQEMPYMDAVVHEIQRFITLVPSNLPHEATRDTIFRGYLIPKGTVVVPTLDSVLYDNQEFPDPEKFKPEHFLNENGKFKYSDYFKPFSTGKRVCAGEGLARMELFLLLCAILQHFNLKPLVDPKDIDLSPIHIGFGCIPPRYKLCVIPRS
T6 sequence (P33261 whole entry): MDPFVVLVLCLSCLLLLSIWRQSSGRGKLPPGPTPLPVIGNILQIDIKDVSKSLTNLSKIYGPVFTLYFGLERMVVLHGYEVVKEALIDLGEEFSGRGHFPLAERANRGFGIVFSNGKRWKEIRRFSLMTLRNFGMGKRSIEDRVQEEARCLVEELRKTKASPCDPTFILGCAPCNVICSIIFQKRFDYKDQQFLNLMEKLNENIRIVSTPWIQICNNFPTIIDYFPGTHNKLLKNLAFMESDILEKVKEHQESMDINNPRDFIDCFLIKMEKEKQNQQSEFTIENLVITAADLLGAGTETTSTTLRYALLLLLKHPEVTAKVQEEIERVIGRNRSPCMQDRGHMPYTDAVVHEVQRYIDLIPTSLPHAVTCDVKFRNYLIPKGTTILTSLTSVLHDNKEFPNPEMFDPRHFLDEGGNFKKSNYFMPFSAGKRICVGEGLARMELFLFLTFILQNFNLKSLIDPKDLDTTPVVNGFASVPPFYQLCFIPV

Structure (SMILES): OC(COc1ccn(-c2ccc(Cl)c(Cl)c2)n1)CN1CCOCC1 (centres undefined)
Ki [1]: 128 nM | Ki [2]: > 1000 nM

Structure (SMILES): Clc1ccc(-n2ccc(OCCN3CCCC3)n2)cc1Cl
Ki [1]: 15.7 nM | Ki [2]: 23.7 nM

Structure (SMILES): Cc1cc(OCCN2CCOCC2)nn1-c1ccc2ccccc2c1
logD [3]: 3.4 | IC50 (Cytochrome P450 2C9 [4]): > 10000 nM | microsomal CLint at 10 µM [5]: 3 µL/min/mg | solubility thermodynamic [6]: 200 µg/mL (≈ 593 µM) | Activity (Mus musculus [7]): Non-toxic | IC50 (Cytochrome P450 2B6 [8]): > 10000 nM | IC50 (Cytochrome P450 2E1 [9]): > 10000 nM | IC50 (Cytochrome P450 2D6 [10]): > 10000 nM | inhibition in vivo at 32 mg/kg (Mus musculus [11]): 62% | Ki [12]: 9300 nM | IC50 [13]: 4700 nM | Papp at 2 h, 10 µM [14]: 37 ×10⁻⁶ cm/s | inhibition (Mus musculus [15]): Dose-dependent effect | ED50 (Mus musculus [15]; 0.5 h): 23.4 mg/kg | IC50 (Cytochrome P450 2E1 [16]): > 10000 nM | IC50 (Cytochrome P450 2C19 [17]): > 10000 nM | logP [18]: 3.5 | IC50 (Cytochrome P450 2B6 [19]): > 10000 nM | Cmax (Mus musculus [20]): 62 ng/mL | inhibition (Mus musculus [21]): Dose-dependent effect | ED50 (Mus musculus [21]; 0.75 h): 18.8 mg/kg | IC50 (Cytochrome P450 2C9 [22]): > 10000 nM | IC50 (Cytochrome P450 2C8 [23]): > 10000 nM | IC50 (Cytochrome P450 1A2 [24]): > 10000 nM | pKa [25]: 6.5 | IC50 (Cytochrome P450 2D6 [26]): > 10000 nM | Ki [27]: 328 nM | AUC [28]: 958 ng·h/mL | inhibition in vivo at 16 mg/kg (Mus musculus [29]): 43% | IC50 (Cytochrome P450 2C19 [30]): > 10000 nM | IC50 (Cytochrome P450 2C8 [31]): > 10000 nM | IC50 (Cytochrome P450 1A2 [32]): > 10000 nM | Ki [2]: > 1000 nM

Structure (SMILES): c1cn(C2CCCCC2)nc1OCCN1CCOCC1
Ki [1]: 23.1 nM | inhibition in vivo at 16 mg/kg (Mus musculus [29]): 20% | IC50 [33]: > 10000 nM | Ki [2]: > 1000 nM

Structure (SMILES): CN1CCN(CCc2ccc(Cl)c(Cl)c2)CC1
Ki [1]: 6.3 nM | Ki [2]: 318 nM

Structure (SMILES): Cc1cc(OCCN2CCOCC2)nn1-c1cccc(Cl)c1
Ki [1]: 180 nM | Ki [2]: > 1000 nM

Structure (SMILES): Cc1cc(OCCCCn2ccc3c2CCCC3=O)nn1-c1ccc(Cl)c(Cl)c1
Ki [1]: > 1000 nM | Ki [2]: > 1000 nM

Structure (SMILES): Clc1ccc(-n2ccc(NCCN3CCOCC3)n2)cc1Cl
Ki [1]: 39.4 nM | Ki [2]: 562 nM

Results, then the compound that gave them:

Ki [1]: 11.7 nM | Ki [2]: 45.5 nM
Structure (SMILES): CCN(CC)CCCCOc1cc(C)n(-c2ccc(Cl)c(Cl)c2)n1

Ki [1]: 9.4 nM | Ki [2]: 63.5 nM
Structure (SMILES): Cc1cc(OCCN2CCCCCC2)nn1-c1ccc(Cl)c(Cl)c1

Ki [1]: 16.5 nM | Ki [2]: 307 nM
Structure (SMILES): CN1CCN(CCCOc2ccn(-c3ccc(Cl)c(Cl)c3)n2)CC1

Ki [1]: 6.9 nM | Ki [2]: 12.6 nM
Structure (SMILES): Cc1cc(OCCCCN2CCCC2)nn1-c1ccc(Cl)c(Cl)c1

Ki [1]: 13.3 nM | Ki [2]: 170 nM
Structure (SMILES): Cc1cc(OCCCN2CCN(C)CC2)nn1-c1ccc(Cl)c(Cl)c1

Ki [1]: 16 nM | Ki [2]: 435 nM
Structure (SMILES): Cc1cc(OCCN2CCC(n3cnc4cccnc43)CC2)nn1-c1ccc(Cl)c(Cl)c1

Ki [1]: 5.2 nM | Ki [2]: 483 nM
Structure (SMILES): Cc1cc(OCCN2CCCC2)nn1-c1ccc(Cl)c(Cl)c1

Ki [1]: 7.1 nM | Ki [2]: 47.5 nM
Structure (SMILES): Cc1cc(OCCCCN2CCCCC2)nn1-c1ccc(Cl)c(Cl)c1

Ki [1]: 294 nM | Ki [2]: > 1000 nM
Structure (SMILES): Cc1cc(OCCn2ccnc2)nn1-c1ccc(Cl)c(Cl)c1

Ki [1]: 10.4 nM | Ki [2]: 62 nM
Structure (SMILES): Cc1cc(OCCCN2CCCC2)nn1-c1ccc(Cl)c(Cl)c1
